The record followed here is patent US9840513B2 (AbbVie S.à.r.l., priority 2015, dated 2017).

Usually EC50 stands for the concentration needed to bring the measured effect to its halfway point.

In this assay the target is T1, F508delCFTR cell surface expression in CFBE41o-F508delCFTR-HRP cells (Homo sapiens, UniProt P13569, DEL508-508).
T1 construct: fused on or other part: Horseradish peroxidase (HRP) reporter inserted in the fourth exofacial (extracellular) loop of CFTR; expression is doxycycline-inducible
As to the kind of experiment: Cell Surface Expression-Horse Radish Peroxidase (CSE-HRP) Assay. It counts as cell-based. The conditions noted are these: for EC50: CFBE41o-F508delCFTR-HRP cells, 18-24 hours at 33° C., 8-point curve, highest concentration 20 μM; for Maximum % activity (%): maximum at any tested concentration, normalized to on-plate positive control (3 μM). The source says: Cell Surface Expression-Horse Radish Peroxidase (CSE-HRP) Assay:
A cellular assay for measuring the F508delCFTR cell surface expression after correction with test compounds was developed in human lung derived epithelial cell line (CFBE41o-) (Veit G et al, (2012) Mol Biol Cell. 23(21): 4188-4202). This was achieved by expressing the F508delCFTR mutation along with a horseradish peroxidase (HRP) in the fourth exofacial loop and then measuring the HRP activity using luminescence readout from these cells, CFBE41o-F508delCFTR-HRP, that were incubated overnight with the test corrector compounds. Briefly, for this primary assay, the CFBE41o-F508delCFTR-HRP cells were plated in 384-well plates (Greiner Bio-one; Cat 781080) at 4,000 cells/well along with 0.5 μg/mL doxycycline to induce the F508delCFTR-HRP expression and further incubated at 37° C., 5% CO2 for 72 hours. The test compounds were then added at the required concentrations and further incubated for 18-24 hours at 33° C. The highest concentration tested was 20 μM with an 8-point concentration response curve using a 3-fold dilution. Three replicate plates were run to determine one EC50. All plates contained negative controls (dimethyl sulfoxide, DMSO) and positive controls (3 μM of 3-[(2R,4R)-4-({[1-(2,2-difluoro-1,3-benzodioxol-5-yl)cyclopropyl]carbonyl}amino)-7-methoxy-3,4-dihydro-2H-chromen-2-yl]benzoic acid) as well as on-plate concentration response of the positive control. Post incubation, the plates were washed 5× times with Dulbecco's phosphate buffered saline (DPBS), followed by the addition of the HRP substrate, luminol (50 μL), and measuring the HRP activity using luminescence readout on EnVision® Multilabel Plate Reader (Perkin Elmer; product number 2104-0010). The raw counts from the experiment are analyzed using Accelrys® Assay Explorer v3.3.
Z′ greater than 0.5 was used as passing quality control criteria for the plates.
The Z′ is defined as: 1−[3*SDPositive Control+3*SDNegative Control/Absolute(MeanPositive Control−MeanNegative Control)] wherein “SD” is standard deviation.
The % activity measured at each of the 8 test concentrations of the test compound was normalized to the on-plate positive control using the following formula: % activity=[(test compound response DMSO response)/(positive control response DMSO response)]*100
The maximum % activity achieved for the test compound at any tested concentration is presented in Table 1 along with the EC50 calculated using the following general sigmoidal curve with variable Hill slope equation (described as Model 42 in the Accelrys® Assay Explorer v3.3 software): y=(a−d)/(1+(x/c)^b)+d
General sigmoidal curve with concentration, response, top, bottom, EC50 and Hill slope.
This model describes a sigmoidal curve with an adjustable baseline, a. The equation can be used to fit curves where response is either increasing or decreasing with respect to the independent variable, “x”.
“x” is a concentration of drug under test.
“a” is the maximum response, and “d” is the minimum response
“c” is the inflection point (EC50) for the curve. That is, “y” is halfway between the lower and upper asymptotes when x=c.
“b” is the slope-factor or Hill coefficient. The sign of b is positive when the response increases with increasing dose and is negative when the response decreases with increasing dose (inhibition).

T1 sequence (P13569 with tags, fused parts or gaps DEL508-508 limits assumed): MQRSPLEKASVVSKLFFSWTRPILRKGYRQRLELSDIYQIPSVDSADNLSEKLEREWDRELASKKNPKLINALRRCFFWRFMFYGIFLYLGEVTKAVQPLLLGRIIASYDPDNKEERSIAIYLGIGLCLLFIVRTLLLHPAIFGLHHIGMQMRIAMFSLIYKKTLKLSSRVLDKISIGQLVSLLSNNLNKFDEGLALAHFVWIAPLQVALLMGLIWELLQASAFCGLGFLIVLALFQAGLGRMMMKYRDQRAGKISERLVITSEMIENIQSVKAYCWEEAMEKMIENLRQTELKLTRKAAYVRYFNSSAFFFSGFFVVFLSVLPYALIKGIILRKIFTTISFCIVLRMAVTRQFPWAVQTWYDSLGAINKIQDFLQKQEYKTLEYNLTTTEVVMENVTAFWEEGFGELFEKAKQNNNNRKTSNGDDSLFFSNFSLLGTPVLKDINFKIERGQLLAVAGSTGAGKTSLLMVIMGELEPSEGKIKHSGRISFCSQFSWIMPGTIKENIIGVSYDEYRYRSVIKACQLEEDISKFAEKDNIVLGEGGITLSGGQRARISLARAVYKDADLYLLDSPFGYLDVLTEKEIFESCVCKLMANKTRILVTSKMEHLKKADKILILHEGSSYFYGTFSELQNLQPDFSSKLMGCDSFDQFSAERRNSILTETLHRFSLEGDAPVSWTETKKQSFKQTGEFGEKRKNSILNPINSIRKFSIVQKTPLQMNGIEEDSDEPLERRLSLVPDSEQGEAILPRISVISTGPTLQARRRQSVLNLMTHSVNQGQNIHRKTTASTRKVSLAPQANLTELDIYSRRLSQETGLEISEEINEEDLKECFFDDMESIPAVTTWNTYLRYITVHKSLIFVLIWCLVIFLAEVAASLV
T1 sequence (P13569 919-1480 limits assumed, stated change not applied): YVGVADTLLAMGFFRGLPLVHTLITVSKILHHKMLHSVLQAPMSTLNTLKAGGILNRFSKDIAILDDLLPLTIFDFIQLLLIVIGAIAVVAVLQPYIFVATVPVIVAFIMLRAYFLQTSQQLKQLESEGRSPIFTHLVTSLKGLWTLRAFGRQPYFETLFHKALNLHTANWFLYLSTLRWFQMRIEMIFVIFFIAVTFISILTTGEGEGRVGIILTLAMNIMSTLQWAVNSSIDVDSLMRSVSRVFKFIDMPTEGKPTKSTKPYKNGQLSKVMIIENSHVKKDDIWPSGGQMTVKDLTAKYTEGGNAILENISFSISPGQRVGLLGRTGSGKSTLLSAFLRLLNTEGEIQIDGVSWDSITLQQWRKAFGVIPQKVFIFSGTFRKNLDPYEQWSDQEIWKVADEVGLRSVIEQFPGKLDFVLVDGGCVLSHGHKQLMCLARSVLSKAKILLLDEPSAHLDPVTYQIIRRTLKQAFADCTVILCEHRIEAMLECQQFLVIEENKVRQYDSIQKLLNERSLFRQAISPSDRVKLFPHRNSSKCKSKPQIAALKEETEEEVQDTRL

For `CC1(C)OC[C@@H](Cn2nc(-c3ccccc3)cc(NC(=O)[C@]3(C)COc4cc5c(cc43)OC(F)(F)O5)c2=O)O1` [Example 41, (7S)—N-(2-{[(4R)-2,2-dimethyl-1,3-dioxolan-4-yl]methyl}-3-oxo-6-phenyl-2,3-dihydropyridazin-4-yl)-2,2-difluoro-7-methyl-6,7-dihydro-2H-furo[2,3-f][1,3]benzodioxole-7-carboxamide], the EC50 was more than 20 µM and the “Maximum % activity (%)” value is 3%.

Take `COc1ccc2c(c1)O[C@@H](c1ccc(C(=O)O)cc1)C[C@H]2NC(=O)[C@@]1(C)CCc2c1ccc1c2OCO1` [Example 42, 4-[(2R,4R)-7-methoxy-4-{[(6S)-6-methyl-7,8-dihydro-2H,6H-indeno[4,5-d][1,3]dioxole-6-carbonyl]amino}-3,4-dihydro-2H-1-benzopyran-2-yl]benzoic acid]: the EC50 is 1.06 µM and the “Maximum % activity (%)” value was 61%.

On to `Cc1ccc(NC(=O)C2(C)CCc3cc4c(cc32)OC(F)(F)O4)nc1-c1cccc(C(=O)O)c1` (centres unmarked) [Example 51, 3-{6-[(2,2-difluoro-5-methyl-6,7-dihydro-2H,5H-indeno[5,6-d][1,3]dioxole-5-carbonyl)amino]-3-methylpyridin-2-yl}benzoic acid], for which the EC50 came to 0.93 µM and the “Maximum % activity (%)” value came out at 153%.

Consider `COC(=O)c1cccc([C@H]2C[C@@H](NC(=O)C3(C)CCc4cc5c(cc43)OC(F)(F)O5)c3ccc(OC)cc3O2)c1` (stereo partly drawn) [Example 52, methyl 3-{(2R,4R)-4-[(2,2-difluoro-5-methyl-6,7-dihydro-2H,5H-indeno[5,6-d][1,3]dioxole-5-carbonyl)amino]-7-methoxy-3,4-dihydro-2H-1-benzopyran-2-yl}benzoate], for which the midpoint of the response, the EC50, lay at 0.96 µM and the “Maximum % activity (%)” value was 77%.

For `CC1(C(=O)Nc2nnc(-c3ccc(C(=O)O)cc3)s2)COc2cc3c(cc21)OC(F)(F)O3` (centres unmarked) [Example 53, 4-{5-[(2,2-difluoro-7-methyl-6,7-dihydro-2H-furo[2,3-f][1,3]benzodioxole-7-carbonyl)amino]-1,3,4-thiadiazol-2-yl}benzoic acid], the EC50 was more than 20 µM and the “Maximum % activity (%)” value was 1%.

On to `CC1(C(=O)Nc2cccc(-c3ccccc3)c2)COc2cc3c(cc21)OC(F)(F)O3` (centres unmarked) [Example 54, N-([1,1′-biphenyl]-3-yl)-2,2-difluoro-7-methyl-6,7-dihydro-2H-furo[2,3-f][1,3]benzodioxole-7-carboxamide], for which it took 6.45 µM to reach a half-maximal effect (EC50) and the “Maximum % activity (%)” value is 151%.

For the compound `CC1(C(=O)Nc2cccc(-c3ccccc3)n2)COc2cc3c(cc21)OC(F)(F)O3` (centres unmarked) [Example 55, 2,2-difluoro-7-methyl-N-(6-phenylpyridin-2-yl)-6,7-dihydro-2H-furo[2,3-f][1,3]benzodioxole-7-carboxamide], the EC50 amounted to 6.62 µM and the “Maximum % activity (%)” value is 159%.

As for `C[C@]1(C(=O)N[C@@H]2C[C@H](c3ccc(C(=O)O)cc3)Oc3ccccc32)CCc2cc3c(cc21)OC(F)(F)O3` [Example 59, 4-[(2R,4R)-4-{[(5S)-2,2-difluoro-5-methyl-6,7-dihydro-211,51-indeno[5,6-d][1,3]dioxole-5-carbonyl]amino}-3,4-dihydro-2H-1-benzopyran-2-yl]benzoic acid], the EC50 is 2.75 µM and the “Maximum % activity (%)” value turned out to be 50%.

Take `Cc1ccc(NC(=O)C2(C)COc3cc4c(cc32)OC(F)(F)O4)cc1-c1cccc(C(=O)O)c1` (centres unmarked) [Example 60, 5′-[(2,2-difluoro-7-methyl-6,7-dihydro-2H-furo[2,3-f][1,3]benzodioxole-7-carbonyl)amino]-2′-methyl[1,1′-biphenyl]-3-carboxylic acid]: the EC50 was 0.63 µM and the “Maximum % activity (%)” value turned out to be 152%.

For `CC1(C(=O)Nc2ccc(N3CC(C(=O)O)C3)cc2)COc2cc3c(cc21)OC(F)(F)O3` (centres unmarked) [Example 61, 1-{4-[(2,2-difluoro-7-methyl-6,7-dihydro-2H-furo[2,3-f][1,3]benzodioxole-7-carbonyl)amino]phenyl}azetidine-3-carboxylic acid], the EC50 is more than 20 µM and the “Maximum % activity (%)” value is 8%.
